Laboratory results from patent US20240208992A1, “MACROCYCLES AS CFTR MODULATORS” (Idorsia Pharmaceuticals Ltd, priority 2021, published 2024).

Molecular target: human F508del-CFTR (Homo sapiens, UniProt P13569, DEL508-508)
Assay: F508del-CFTR cell surface expression (corrector activity), DiscoveRx ß-galactosidase complementation chemiluminescence assay in recombinant U2OS cell line;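 note: U2OS cells co-expressing ProLink-tagged F508del-CFTR and a membrane-anchored enzyme acceptor, where more surface CFTR restores β-galactosidase activity measured by chemiluminescence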
Details: for EC50: EC50, F508del-CFTR cell surface expression; for Emax: U2OS
[1] = U2OS cells, 16h compound incubation, geomean of several measurements
[2] = in relation to the Emax of the corrector lumacaftor (=100%), U2OS cells, 16h compound incubation, arithmetic mean
[3] = U2OS cell line, 16h compound incubation, geomean values
[4] = in relation to the Emax of the corrector lumacaftor (=100%), U2OS cell line, 16h compound incubation, arithmetic mean values
[5] = U2OS cells, 16h compound incubation, geomean values
[6] = in relation to Emax of corrector lumacaftor (=100%), arithmetic mean values

human F508del-CFTR, sequence (P13569 with tags, fused parts or gaps DEL508-508): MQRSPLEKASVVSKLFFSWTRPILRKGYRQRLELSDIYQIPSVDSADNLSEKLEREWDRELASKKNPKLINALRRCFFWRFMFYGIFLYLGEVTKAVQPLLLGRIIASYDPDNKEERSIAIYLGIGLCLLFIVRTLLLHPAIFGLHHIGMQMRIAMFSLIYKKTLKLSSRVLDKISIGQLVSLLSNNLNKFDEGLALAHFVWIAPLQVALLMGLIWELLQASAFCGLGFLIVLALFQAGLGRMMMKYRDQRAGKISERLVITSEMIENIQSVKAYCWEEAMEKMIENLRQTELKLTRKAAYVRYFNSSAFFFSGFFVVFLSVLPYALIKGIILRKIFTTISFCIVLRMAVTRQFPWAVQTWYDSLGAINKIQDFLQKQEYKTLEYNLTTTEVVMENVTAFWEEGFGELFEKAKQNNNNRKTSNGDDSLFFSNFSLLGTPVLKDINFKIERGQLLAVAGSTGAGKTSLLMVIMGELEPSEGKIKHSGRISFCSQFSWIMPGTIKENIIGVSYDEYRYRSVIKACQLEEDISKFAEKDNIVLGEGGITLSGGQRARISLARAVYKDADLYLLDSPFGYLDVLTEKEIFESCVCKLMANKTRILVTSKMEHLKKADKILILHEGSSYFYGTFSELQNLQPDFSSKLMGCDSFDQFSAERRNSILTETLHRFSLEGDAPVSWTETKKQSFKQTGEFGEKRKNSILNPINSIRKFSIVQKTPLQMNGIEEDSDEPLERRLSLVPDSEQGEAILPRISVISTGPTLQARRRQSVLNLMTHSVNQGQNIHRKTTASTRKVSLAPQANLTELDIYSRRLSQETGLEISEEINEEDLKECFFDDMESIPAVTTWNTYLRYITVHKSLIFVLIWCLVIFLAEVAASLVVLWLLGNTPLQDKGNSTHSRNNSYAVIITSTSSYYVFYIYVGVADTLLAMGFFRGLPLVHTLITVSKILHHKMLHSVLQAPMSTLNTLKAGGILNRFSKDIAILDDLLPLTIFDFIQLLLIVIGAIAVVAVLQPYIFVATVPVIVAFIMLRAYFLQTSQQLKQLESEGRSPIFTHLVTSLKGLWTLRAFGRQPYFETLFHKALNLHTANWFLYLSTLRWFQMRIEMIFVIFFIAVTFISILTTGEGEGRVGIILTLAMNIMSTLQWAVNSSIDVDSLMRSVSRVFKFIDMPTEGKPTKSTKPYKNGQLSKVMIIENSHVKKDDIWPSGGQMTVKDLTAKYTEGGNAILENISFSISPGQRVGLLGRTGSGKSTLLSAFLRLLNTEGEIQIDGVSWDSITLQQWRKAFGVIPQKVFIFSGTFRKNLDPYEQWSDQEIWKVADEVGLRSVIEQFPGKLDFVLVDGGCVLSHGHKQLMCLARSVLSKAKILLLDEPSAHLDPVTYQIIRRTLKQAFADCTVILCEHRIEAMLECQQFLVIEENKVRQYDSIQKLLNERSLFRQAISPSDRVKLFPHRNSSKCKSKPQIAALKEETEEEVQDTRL

SMILES	EC50 [3]	Emax [4]	EC50 [5]	Emax [6]	also measured
CCOCC[C@@H]1C(=O)N[C@H](Cc2ccccc2)COc2ccc3cnc(C)cc3c2C(=O)N[C@H](C(=O)NCCc2cc(OC)no2)CC(=O)N(C)[C@@H](CC(C)C)C(=O)N1C [Example 913, (3S,7S,10R,13R)-13-benzyl-10-(2-ethoxyethyl)-7-isobutyl-N-(2-(3-methoxyisoxazol-5-yl)ethyl)-6,9,20-trimethyl-1,5,8,11-tetraoxo-1,2,3,4,5,6,7,8,9,10,11,12,13,14-tetradecahydro-[1]oxa[4,7,10,14]tetraazacycloheptadecino[16,17-f]isoquinoline-3-carboxamide]					EC50 [1]: 294 nM; Emax [2]: 390%
COc1noc(CCNC(=O)[C@@H]2CC(=O)N(C)[C@@H](CC(C)C)C(=O)N(C)[C@H](Cc3nc(C(F)(F)F)no3)C(=O)N[C@H](Cc3ccccc3)COc3ccc4ncc(F)cc4c3C(=O)N2)n1 [Example 934, (3S,7S,10R,13R)-13-benzyl-20-fluoro-7-isobutyl-N-(2-(3-methoxy-1,2,4-oxadiazol-5-yl)ethyl)-6,9-dimethyl-1,5,8,11-tetraoxo-10-((3-(trifluoromethyl)-1,2,4-oxadiazol-5-yl)methyl)-1,2,3,4,5,6,7,8,9,10,11,12,13,14-tetradecahydro-[1]oxa[4,7,10,14]tetraazacycloheptadecino[16,17-f]quinoline-3-carboxamide]					EC50 [1]: 37 nM; Emax [2]: 528%
CC(C)C[C@H]1C(=O)N(C)C2(CC2)C(=O)N[C@H](Cc2ccccc2)COc2cnc3ccc(F)cc3c2C(=O)N[C@H](C(=O)NCCc2cccc(C(F)(F)F)c2)CC(=O)N1C [Example 169, (3′S,7′S,13′R)-13′-benzyl-20′-fluoro-7′-isobutyl-6′,9′-dimethyl-1′,5′,8′,11′-tetraoxo-N-(3-(trifluoromethyl)phenethyl)-2′,3′,4′,5′,6′,7′,8′,9′,11′,12′,13′,14′-dodecahydro-1′H-spiro[cyclopropane-1,10′-[1]oxa[4,7,10,14]tetraazacycloheptadecino[17,16-c]quinoline]-3′-carboxamide]	334 nM	170%			
CC(C)C[C@H]1C(=O)N2CCN(c3ccccc3)C[C@H]2C(=O)N[C@H](Cc2ccccc2)COc2cnc3ccc(F)cc3c2C(=O)N[C@H](C(=O)NCCc2nc(C3CC3)no2)CC(=O)N1C [Example 525, (9S,13S,19aR,22R)-22-benzyl-N-(2-(3-cyclopropyl-1,2,4-oxadiazol-5-yl)ethyl)-5-fluoro-13-isobutyl-12-methyl-7,11,14,20-tetraoxo-18-phenyl-7,8,9,10,11,12,13,14,17,18,19,19a,20,21,22,23-hexadecahydro-16H-pyrazino[2′,11:6,7][1]oxa[4,7,10,14]tetraazacycloheptadecino[17,16-c]quinoline-9-carboxamide]			56 nM	288%	
COc1cccc(CCNC(=O)[C@@H]2CC(=O)N(C)[C@@H](CC(C)C)C(=O)N3CCN(CCO)C[C@@H]3C(=O)N[C@H](Cc3ccccc3)COc3ccc4ccccc4c3C(=O)N2)c1 [Example 416, (4aR,7R,18S,22S)-7-benzyl-3-(2-hydroxyethyl)-22-isobutyl-N-(3-methoxyphenethyl)-21-methyl-5,16,20,23-tetraoxo-2,3,4,4a,5,6,7,8,16,17,18,19,20,21,22,23-hexadecahydro-1H-naphtho[1,2-p]pyrazino[2,1-f][1]oxa[4,7,10,14]tetraazacycloheptadecine-18-carboxamide]			526 nM	345%	
[2H]C([2H])([2H])Oc1cccc2c1C(=O)N[C@H](C(=O)NCCc1ccc3c(c1)OCO3)CC(=O)N(C)[C@@H](CC(C)C)C(=O)N(CCC1CCCCC1)CC(=O)N[C@H](Cc1ccccc1)CO2 [Example 242, (3R,9S,13S)-N-(2-(benzo[d][1,3]dioxol-5-yl)ethyl)-3-benzyl-7-(2-cyclohexylethyl)-9-isobutyl-16-(methoxy-d3)-10-methyl-5,8,11,15-tetraoxo-2,3,4,5,6,7,8,9,10,11,12,13,14,15-tetradecahydrobenzo[p][1]oxa[4,7,10,14]tetraazacycloheptadecine-13-carboxamide]	177 nM	232%			
COc1cc(CCNC(=O)[C@@H]2CC(=O)N(C)[C@@H](CC(C)C)C(=O)N(C)[C@H](CC(F)(F)F)C(=O)N[C@H](Cc3ccccc3)COc3cc(C)nc(OC)c3C(=O)N2)on1 [Example 791, (3R,6R,9S,13S)-3-benzyl-9-isobutyl-16-methoxy-N-(2-(3-methoxyisoxazol-5-yl)ethyl)-7,10,18-trimethyl-5,8,11,15-tetraoxo-6-(2,2,2-trifluoroethyl)-2,3,4,5,6,7,8,9,10,11,12,13,14,15-tetradecahydropyrido[3,4-p][1]oxa[4,7,10,14]tetraazacycloheptadecine-13-carboxamide]			80 nM	345%	
COc1cccc(CCNC(=O)[C@@H]2CC(=O)N(C)[C@@H](CC(C)C)C(=O)N3CCN(C(=O)OCC(Cl)(Cl)Cl)C[C@@H]3C(=O)N[C@H](Cc3ccccc3)COc3ccc4ccccc4c3C(=O)N2)c1 [Example 369, 2,2,2-trichloroethyl (4aR,7R,18S,22S)-7-benzyl-22-isobutyl-18-((3-methoxyphenethyl)carbamoyl)-21-methyl-5,16,20,23-tetraoxo-1,2,4,4a,5,6,7,8,16,17,18,19,20,21,22,23-hexadecahydro-3H-naphtho[1,2-p]pyrazino[2,1-f][1]oxa[4,7,10,14]tetraazacycloheptadecine-3-carboxylate]	107 nM	243%			
COc1noc(CCNC(=O)[C@@H]2CC(=O)N(C)[C@@H](CC(C)C)C(=O)N(C)C3(CC3)C(=O)N[C@H](Cc3ccccc3)COc3cnc4ccccc4c3C(=O)N2)n1 [Example 872, (3′S,7′S,13′R)-13′-benzyl-7′-isobutyl-N-(2-(3-methoxy-1,2,4-oxadiazol-5-yl)ethyl)-6′,9′-dimethyl-1′,5′,8′,11′-tetraoxo-2′,3′,4′,5′,6′,7′,8′,9′,11′,12′,13′,14′-dodecahydro-1′H-spiro[cyclopropane-1,10′-[1]oxa[4,7,10,14]tetraazacycloheptadecino[17,16-c]quinoline]-3′-carboxamide]					EC50 [1]: 535 nM; Emax [2]: 318%
CC(C)C[C@H]1C(=O)N2CCOC[C@@H]2C(=O)N[C@H](Cc2ccccc2)COc2ccc3ccccc3c2C(=O)N[C@H](C(=O)NCCc2ccc(C#N)cc2)CC(=O)N1C [Example 40, (4aR,7R,18S,22S)-7-benzyl-N-(4-cyanophenethyl)-22-isobutyl-21-methyl-5,16,20,23-tetraoxo-1,2,4,4a,5,6,7,8,16,17,18,19,20,21,22,23-hexadecahydronaphtho[1,2-p][1,4]oxazino[3,4-f][1]oxa[4,7,10,14]tetraazacycloheptadecine-18-carboxamide]	897 nM	147%			
CC(C)C[C@H]1C(=O)N2CCN(C3CC3)C[C@@H]2C(=O)N[C@H](Cc2ccccc2)COc2cnc3ccccc3c2C(=O)N[C@H](C(=O)NCCc2nc3c(s2)CCC3)CC(=O)N1C [Example 404, (9S,13S,19aR,22R)-22-benzyl-18-cyclopropyl-N-(2-(5,6-dihydro-4H-cyclopenta[d]thiazol-2-yl)ethyl)-13-isobutyl-12-methyl-7,11,14,20-tetraoxo-7,8,9,10,11,12,13,14,17,18,19,19a,20,21,22,23-hexadecahydro-16H-pyrazino[2′,11:6,7][1]oxa[4,7,10,14]tetraazacycloheptadecino[17,16-c]quinoline-9-carboxamide]			157 nM	254%	
CC(C)C[C@H]1C(=O)N2CCCC[C@@H]2C(=O)N[C@H](Cc2ccccc2)COc2ccc3ncc(F)cc3c2C(=O)N[C@H](C(=O)NCCc2nc(C3CC3)no2)CC(=O)N1C [Example 780, (9S,13S,19aR,22R)-22-benzyl-N-(2-(3-cyclopropyl-1,2,4-oxadiazol-5-yl)ethyl)-5-fluoro-13-isobutyl-12-methyl-7,11,14,20-tetraoxo-7,8,9,10,11,12,13,14,17,18,19,19a,20,21,22,23-hexadecahydro-16H-pyrido[2′,1′:6,7][1]oxa[4,7,10,14]tetraazacycloheptadecino[16,17-f]quinoline-9-carboxamide]			116 nM	280%	
Cc1cc(CCNC(=O)[C@@H]2CC(=O)N(C)[C@@H](CC(C)C)C(=O)N3CCN(C(C)C)C[C@@H]3C(=O)N[C@H](Cc3ccccc3)COc3cnc4ccccc4c3C(=O)N2)on1 [Example 375, (9S,13S,19aR,22R)-22-benzyl-13-isobutyl-18-isopropyl-12-methyl-N-(2-(3-methylisoxazol-5-yl)ethyl)-7,11,14,20-tetraoxo-7,8,9,10,11,12,13,14,17,18,19,19a,20,21,22,23-hexadecahydro-16H-pyrazino[2′,1′:6,7][1]oxa[4,7,10,14]tetraazacycloheptadecino[17,16-c]quinoline-9-carboxamide]	461 nM	316%			
COc1cc(CCNC(=O)[C@@H]2CC(=O)N(C)[C@@H](CC(C)C)C(=O)N3CCCC[C@@H]3C(=O)N[C@H](Cc3ccccc3)COc3ccc4cnc(C)cc4c3C(=O)N2)on1 [Example 796, (9S,13S,19aR,22R)-22-benzyl-13-isobutyl-N-(2-(3-methoxyisoxazol-5-yl)ethyl)-5,12-dimethyl-7,11,14,20-tetraoxo-7,8,9,10,11,12,13,14,17,18,19,19a,20,21,22,23-hexadecahydro-16H-pyrido[2′,1′:6,7][1]oxa[4,7,10,14]tetraazacycloheptadecino[16,17-f]isoquinoline-9-carboxamide]			156 nM	321%	
